# From US20160346412A1, “A KIT FOR PREPARING A RADIOPHARMACEUTICAL” (THE SOUTH AFRICAN NUCLEAR ENERGY CORPORATION LIMITED, priority 2014, published 2016)
# Experiments:
# [1] = Stability of the ligand in water; format: physicochemical; conditions: free ligand versus metal-chelated ligand
# Description: The production of kits of ECDG, a water labile ligand, is problematic as the normal kit procedure includes a lyophilisation step in the aqueous phase wherein the pure ligand active pharmaceutical ingredient (API) is dissolved in water/saline containing at least one each of a reducing agent, additive and buffer, distributed in vials and freeze dried. At the hospital the ^99mTc in saline is added to the kit and reconstituted. The ^99mTc is then chelated to the ECDG ligand and the ^99mTc-ECDG radiopharmaceutical is ready for injection.
# [2] = aqueous medium in the published syntheses; cited from earlier work
Structure (SMILES),stability in water [1],"sensitivity to air, light, water and temperature [2]"
"O=C(NC1C(O)O[C@H](CO)[C@@H](O)[C@@H]1O)C(CS)NCCN[C@@H](CS)C(=O)NC1C(O)O[C@H](CO)[C@@H](O)[C@@H]1O (stereo partly drawn) [ECDG, ethylenedicysteine deoxyglucosamine]",breaks down in water almost immediately,"air, light, water and temperature sensitive"
"O=C(NC1C(O)O[C@H](CO)[C@@H](O)[C@@H]1O)C1C[S][Tc]23(=[O])[S]C[C@@H](C(=O)NC4C(O)O[C@H](CO)[C@@H](O)[C@@H]4O)[N]2CC[N]13 (stereo partly drawn) [^99mTc-ECDG, ^99mTechnetium-ethylenedicysteine deoxyglucosamine]",stable in water,–
